4 compounds from paper PMC6270821, “ROS-Mediated Cytotoxic Effect of Copper(II) Hydrazone Complexes against Human Glioma Cells” (Molecules, 2014) can be followed below.

In general, IC50 refers to the midpoint of a concentration-inhibition curve. Lower therefore signals inhibition by little substance.

Structures are written as SMILES.

Experiment [1] relates to pUC 19 plasmid DNA. The experiment in a line: Agarose gel electrophoresis of supercoiled plasmid DNA. The arrangement: species or system Escherichia coli. The following applies: 100 µM, Tris-HCl pH 7.20, 37 °C, 24 h. The method, then: Studies of interactions between the compounds under study and supercoiled plasmid DNA by agarose gel electrophoresis were carried out. Thus, 136 ng of purified plasmid DNA-pUC 19 from Escherichia coli (Sigma-Aldrich Brasil, São Paulo, Brazil) were incubated with compounds 1, 2 and cisplatin at 100 µM in Tris-HCl buffer (NaCl 50 mM, Tris-HCl 5 mM, pH = 7.20). The mixture was incubated at 37 °C for 24 h. Thereafter, the reactions were quenched by adding 5 µL of the loading buffer solution (50 mM Tris, pH 7.20, 0.01% bromophenol blue, 50% glycerol, and 250 mM EDTA). The samples were analyzed by 1% agarose gel electrophoresis in 0.5 × TBE buffer for 1 h 40 min at […]. The gel was stained after electrophoresis in 0.5× TBE buffer with 2.5 µg·mL^−1 ethidium bromide for 15 min and visualized by UV light.

The test system of experiment [2] is U87 (p53 wild-type glioblastoma multiforme) cells. The experiment in a line: MTT cytotoxicity assay, U87 cells. It is filed as cell-based, human. The following applies: for IC50: MTT, 48 h treatment. How it is done: (§1) The in vitro cytotoxic effects of H2AcMe, H2BzMe and complexes 1 and 2 against wild type p53 U87 and mutant p53 T98 glioblastoma cells and against MRC-5 fibroblasts cells were tested using cisplatin as a positive control. To determine the IC50 (concentration that inhibits 50% of cell survival) values the cytotoxic effects were quantified using the 3-(4,5-dimethyl-2-thioazolyl)-2,5-diphenyl tetrazolium bromide (MTT) colorimetric assay. All tested compounds were cytotoxic against both glioma cell lines in a dose-dependent way. The IC50 values (see Table 1) were found in the micromolar range. Despite their cytotoxic activity, all compounds were less toxic to fibroblasts cells than cisplatin. CuCl2 evoked only mild cytotoxicity in all cell lineages with IC50 higher than 100 µM.
(§2) U87 (p53 wild-type glioblastoma multiforme) and T98 (p53 mutant glioblastoma multiforme) malignant human tumor cells and MRC5 (Human Fetal Lung Fibroblast) cells were obtained from the American Type Culture Collection (ATCC, Manassas, VA, USA). Cell lines were grown as monolayer in Dulbecco’s Modified Eagle’s Medium (DMEM, Gibco, Rockville, MD, USA), supplemented with 10% fetal bovine serum (Cultilab, Campinas, São Paulo, Brazil) and antibiotics (50 U/mL penicillin/50 […] streptomycin), in a humidified atmosphere air/CO2 (95%/5%) at 37 °C. Cells 80% confluents were used in all experiments. For all experiments, cells were seeded in 96-well plates, at a density of 1000 cells/well. After 24 h incubation cells were treated.
(§3) To determine the IC50 values the cytotoxic effects were quantified using the 3-(4,5-dimethyl-2-thioazolyl)-2,5-diphenyltetrazolium bromide (MTT) colorimetric assay. Briefly, cells were treated with increasing concentrations (10^−12, 10^−11, 10^−10, 10^−9, 10^−8, 10^−7, 10^−6, 10^−5, 10^−4 mol·L^−1) of either cisplatin (positive control) or test compounds (H2AcMe, H2BzMe, 1 and 2). The compounds were previously dissolved in dimethyl sulfoxide (DMSO) and the final concentrations were adjusted in DMEM in such manner that the final DMSO concentration was lower than 0.5%. Following 48 h treatment, MTT reagent was added to each well. Following another 4 h of incubation at 37 °C, DMSO was added to each well to dissolve formazan precipitate and absorbance was measured at 570 nm. Tests using DMSO (0.5% in DMEM) as negative control were carried out in parallel. All tests were performed in quadruplicates with full agreement between the results. Statistical analysis was carried out by the unpaired, one-tailed Student’s t testing using a p value of 0.05. A value of p < 0.05 was considered significant.
In general terms: Tetrazolium dyes change colour on reduction, which living cells bring about.

Experiment [3] relates to T98 (p53 mutant glioblastoma multiforme) cells. Briefly: MTT cytotoxicity assay, T98 cells. It is filed as cell-based, human. The conditions noted are these: for IC50: MTT, 48 h treatment; for selectivity index (SI = IC50MRC5/IC50tumor cell), T98: T98 vs MRC5. The method, then:
as §1, §2, §3

Experiment [4] deals with MRC5 (Human Fetal Lung Fibroblast) cells. The experiment in a line: MTT cytotoxicity assay, MRC5 fibroblasts. It is filed as cell-based. The method, then: as §1, §2, §3
For experiment [5], the system named is MRC5 cells. The experiment in a line: ROS generation, DCFH-DA assay, MRC5 cells. It is filed as cell-based, human. The conditions noted are these: 1 × 10^−5 mol/L, 24 h. The text has this: (§4) To examine the effects of H2AcMe, H2BzMe and their complexes 1 and 2 on the generation of free radicals (reactive oxygen species, ROS), we used the 2',7'-dichlorodihydrofluorescein diacetate (DCFH-DA) assay.
(§5) ROS accumulation was detected using dichlorodihydrofluorescein diacetate (DCFH-DA, Sigma). DCFH-DA is a non-fluorescent compound, that when it is taken up by passive diffusion into the cells, is hydrolyzed by esterases to yield non-permeable DCFH. In the presence of ROS, DCFH is oxidized to the fluorescent DCF. Tumor cells were treated with the compounds for 24 h and were then incubated with DCFH-DA (1 × 10^−5 mol·L^−1) for 30 min at 37 °C. Following incubation, the cells were washed twice with PBS. Thereafter, the cells were observed under the fluorescent microscope Zeiss Axionplan coupled with a digital camera at excitation and emission wavelengths of 488 and 525 nm, respectively. Data were analyzed using ImageJ (ImageJ, National Institute of Health, Bethesda, MD, USA) and expressed as percentages of DCFDA fluorescence of the corresponding control.

Experiment [6] has as its system U87 cells. Briefly: ROS generation, DCFH-DA assay, U87 cells. It is filed as cell-based, human. The conditions noted are these: 1 × 10^−5 mol/L, 24 h.
Description: as §4, §5

Setting [7] is: Homo sapiens, MRC5, 48 h treatment.

As for `N.N.[Cl][Pt][Cl]` [Cisplatin, [cis(Diaminedichloro)platinum(II)], reference compound], the “alteration in the electrophoretic mobility of pUC 19 plasmid DNA” value in experiment [1] is reported as “strong modification”. The results for the IC50 in experiment [2], in experiment [3] and in experiment [4] (48 h treatment) were 1.76 ± 0.22 µM, 5.31 ± 1.94 µM and 5.05 ± 0.71 µM, respectively. In experiment [2] (U87 vs MRC5), the “selectivity index (SI = IC50MRC5/IC50tumor cell), U87” value is recorded as 2.87. Further, the “selectivity index (SI = IC50MRC5/IC50tumor cell), T98” value in experiment [3] was determined as 0.95.

Consider `[Cl][Cu][Cl]` [CuCl2, reference compound], for which, in experiment [1], the “alteration in the electrophoretic mobility of pUC 19 plasmid DNA” value is given as “no alteration in the electrophoretic mobility”. Besides, the IC50 in experiment [2], in experiment [3] and in experiment [4] (48 h treatment) was greater than 100 µM throughout.

As to `CC(=O)NN=C(C)c1ccccn1` [H2AcMe, 2-Acetylpyridine acetylhydrazone], the “ROS levels in MRC5 cells compared with glioma cells” value in experiment [5] is on record as “lower levels of ROS in MRC5 cells”. Besides, the IC50 in experiment [2] (Homo sapiens, U-87 MG) turned out to be 67.6 ± 4.08 µM; in experiment [3] (Homo sapiens, T98, 48 h), 13.8 ± 4.89 µM; in experiment [4] (setting [7]) it was 19.8 ± 4.15 µM. Also, the “ROS levels in U87 cells compared with T98 cells” value in experiment [6] is on record as “higher levels of ROS in U87 cells”.

`CC(=O)NN=C(c1ccccc1)c1ccccn1` [H2BzMe, 2-benzoylpyridine acetylhydrazone]: the “ROS levels in MRC5 cells compared with glioma cells” value in experiment [5] was “the same increasing in ROS levels in MRC5 and in both malignant cells”. Further, the IC50 in experiment [2] (Homo sapiens, U-87 MG) was 52.3 ± 10 µM; in experiment [3] (Homo sapiens, T98, 48 h) it was 19.8 µM; in experiment [3] it was 19.7 ± 1.06 µM; in experiment [4] (setting [7]), 62.3 ± 7.76 µM. The “selectivity index (SI = IC50MRC5/IC50tumor cell), T98” value in experiment [3] is listed as “good selectivity index”. The “ROS levels in U87 cells compared with T98 cells” value in experiment [6] is “equally effective in both cell lineages”.
